Laboratory results reported in the supplement of paper PMC10307832.

Compound: CC(C)(C)c1cc(NC(=O)Nc2ccc(-c3cn4c(n3)sc3cc(OCCN5CCOCC5)ccc34)cc2)no1 [Quizartinib] + Cc1cc(Nc2cc(N3CCN(C)CC3)nc(Sc3ccc(NC(=O)C4CC4)cc3)n2)n[nH]1 [Tozasertib] (partner 0.1 µM)
Test: relative viability (nuclei count vs DMSO), 5 days (fraction); higher = more cells survive
Conditions: first compound 0.1 µM
Summary of the method: (§1)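 Lung cancer cell lines in 1536-well plates got either a single drug or a fixed anchor-drug dose together with five library-drug doses (not always all listed) in √10 steps, by pin tool, on the day after seeding. Nuclei were counted after 5 days, and relative viability is the treated-to-vehicle ratio of nuclei counts. Values are medians of duplicate plates.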

Row | Cell Line | relative viability
1 | NCI-H2170 | 0.804
2 | NCI-H358 | 0.0995
3 | CAL-12T | 0.199
4 | LK-2 | 0.142
5 | HOP-62 | 0.33
6 | PC-14 | 0.558
7 | NCI-H1993 | 0.582
8 | NCI-H2405 | 0.68
9 | NCI-H3122 | 0.337
10 | A-427 | 0.189
11 | LOU-NH91 | 0.668
12 | NCI-H596 | 0.64
13 | NCI-H1666 | 0.557
14 | NCI-H23 | 0.231
15 | NCI-H838 | 0.22
16 | NCI-H322M | 0.558
17 | NCI-H1793 | 0.238
18 | NCI-H441 | 0.489
19 | NCI-H727 | 0.7
20 | 201T | 0.854
21 | NCI-H1755 | 0.48
22 | NCI-H2085 | 0.45
23 | NCI-H460 | 0.0635

Compound: COCC[n+]1c2c(n(Cc3cnccn3)c1C)C(=O)c1ccccc1C2=O [YM155] + Cc1nc(NC(=O)N2CCC[C@H]2C(N)=O)sc1-c1ccnc(C(C)(C)C(F)(F)F)c1 [Alpelisib] (partner 2 µM)
Test: as above
Conditions: first compound 0.002 µM
Summary of the method: as §1

Row | Cell Line | relative viability
24 | NCI-H2347 | 1.01
25 | LCLC-103H | 1
26 | ABC-1 | 0.85
27 | NCI-H1734 | 0.63
28 | HCC-78 | 0.341
29 | HCC-15 | 0.96
30 | HARA | 0.876
31 | NCI-H1975 | 0.627
32 | NCI-H1944 | 0.83
33 | NCI-H2126 | 0.754
34 | EMC-BAC-2 | 0.735
35 | NCI-H2170 | 0.866
36 | NCI-H358 | 0.801
37 | CAL-12T | 1.02
38 | LK-2 | 1.17
39 | HOP-62 | 1.14

Row | Cell Line | relative viability
40 | PC-14 | 1
41 | NCI-H1993 | 0.691
42 | NCI-H2405 | 0.826
43 | NCI-H3122 | 0.67
44 | A-427 | 1.08
45 | LOU-NH91 | 0.767
46 | NCI-H1666 | 0.822
47 | NCI-H23 | 0.707
48 | NCI-H838 | 0.971
49 | NCI-H322M | 0.762
50 | NCI-H441 | 0.733
51 | NCI-H727 | 0.499
52 | 201T | 1.01
53 | NCI-H1755 | 0.892
54 | NCI-H2085 | 0.955
55 | NCI-H460 | 0.433

Same assay, conditions: first compound 0.006325 µM

Row | Cell Line | relative viability
56 | NCI-H2347 | 0.896
57 | LCLC-103H | 0.997
58 | ABC-1 | 0.368
59 | NCI-H1734 | 0.658
60 | HCC-78 | 0.436
61 | HCC-15 | 0.826
62 | HARA | 0.961
63 | NCI-H1975 | 0.665
64 | NCI-H1944 | 0.756
65 | NCI-H2126 | 0.76
66 | EMC-BAC-2 | 0.723
67 | NCI-H2170 | 0.855
68 | NCI-H358 | 0.871
69 | CAL-12T | 1.29
70 | LK-2 | 1.05
71 | HOP-62 | 0.921
72 | PC-14 | 1.02

Row | Cell Line | relative viability
73 | NCI-H1993 | 0.726
74 | NCI-H2405 | 0.593
75 | NCI-H3122 | 0.665
76 | A-427 | 1.06
77 | LOU-NH91 | 0.674
78 | NCI-H596 | 0.514
79 | NCI-H23 | 0.669
80 | NCI-H838 | 0.991
81 | NCI-H322M | 0.878
82 | NCI-H1793 | 0.601
83 | NCI-H441 | 0.644
84 | NCI-H727 | 0.495
85 | 201T | 1.03
86 | NCI-H1755 | 0.926
87 | NCI-H2085 | 0.833
88 | NCI-H460 | 0.498

Same assay, conditions: first compound 0.02 µM

Row | Cell Line | relative viability
89 | NCI-H2347 | 0.987
90 | LCLC-103H | 0.946
91 | ABC-1 | 0.264
92 | NCI-H1734 | 0.697
93 | HCC-78 | 0.361
94 | HCC-15 | 0.927
95 | HARA | 0.842
96 | NCI-H1975 | 0.581
97 | NCI-H1944 | 0.803
98 | NCI-H2126 | 0.77
99 | EMC-BAC-2 | 0.729
100 | NCI-H2170 | 0.889
101 | NCI-H358 | 0.911
102 | CAL-12T | 0.921
103 | LK-2 | 1.13
104 | HOP-62 | 0.633
105 | PC-14 | 0.953

Row | Cell Line | relative viability
106 | NCI-H1993 | 0.673
107 | NCI-H2405 | 0.826
108 | NCI-H3122 | 0.751
109 | A-427 | 1.09
110 | LOU-NH91 | 0.76
111 | NCI-H596 | 0.499
112 | NCI-H1666 | 1.11
113 | NCI-H23 | 0.71
114 | NCI-H838 | 1.05
115 | NCI-H322M | 0.666
116 | NCI-H1793 | 0.659
117 | NCI-H441 | 0.567
118 | NCI-H727 | 0.586
119 | 201T | 1.05
120 | NCI-H1755 | 0.973
121 | NCI-H2085 | 0.731
122 | NCI-H460 | 0.436

Same assay, conditions: first compound 0.06325 µM

Row | Cell Line | relative viability
123 | NCI-H2347 | 0.67
124 | LCLC-103H | 1.09
125 | ABC-1 | 0.243
126 | NCI-H1734 | 0.776
127 | HCC-78 | 0.438
128 | HCC-15 | 0.879
129 | HARA | 0.86
130 | NCI-H1975 | 0.549
131 | NCI-H1944 | 0.905
132 | NCI-H2126 | 0.802
133 | EMC-BAC-2 | 0.719
134 | NCI-H2170 | 0.877
135 | NCI-H358 | 0.283
136 | CAL-12T | 0.25
137 | LK-2 | 1.12
138 | HOP-62 | 0.775
139 | PC-14 | 0.811

Row | Cell Line | relative viability
140 | NCI-H1993 | 0.657
141 | NCI-H2405 | 0.345
142 | NCI-H3122 | 0.82
143 | A-427 | 1.12
144 | LOU-NH91 | 0.745
145 | NCI-H596 | 0.49
146 | NCI-H1666 | 0.844
147 | NCI-H23 | 0.271
148 | NCI-H838 | 0.316
149 | NCI-H322M | 0.732
150 | NCI-H1793 | 0.565
151 | NCI-H441 | 0.429
152 | NCI-H727 | 0.575
153 | 201T | 1.02
154 | NCI-H1755 | 1.02
155 | NCI-H2085 | 0.559
156 | NCI-H460 | 0.452
